Inhibition and IC50 data for 31 compounds are collected here from ChEMBL document CHEMBL2203275, “Design and synthesis of novel bis-thiazolone derivatives as micromolar CDC25 phosphatase inhibitors: effect of dimerisation on phosphatase inhibition” (Bioorg Med Chem Lett, 2012).

The target of test [1] is T1, Tyrosine-protein phosphatase non-receptor type 1 (Homo sapiens) (UniProt P18031).
T1 sequence (whole entry): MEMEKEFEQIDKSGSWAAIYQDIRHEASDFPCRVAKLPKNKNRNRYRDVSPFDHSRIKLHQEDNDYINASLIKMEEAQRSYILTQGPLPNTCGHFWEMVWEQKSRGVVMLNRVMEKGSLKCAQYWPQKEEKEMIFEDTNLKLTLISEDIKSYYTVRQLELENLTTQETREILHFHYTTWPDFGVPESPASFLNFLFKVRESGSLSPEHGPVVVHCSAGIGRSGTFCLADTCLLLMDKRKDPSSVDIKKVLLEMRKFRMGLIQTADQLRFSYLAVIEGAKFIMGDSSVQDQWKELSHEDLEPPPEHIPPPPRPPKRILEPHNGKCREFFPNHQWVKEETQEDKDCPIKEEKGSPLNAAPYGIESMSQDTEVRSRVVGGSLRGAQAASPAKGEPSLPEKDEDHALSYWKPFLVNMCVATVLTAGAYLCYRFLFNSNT
The experiment in a line: Inhibition of PTP1B using fluorescein 3,6 diphosphate as substrate at 100 uM measured for 1 hr in presence of 1 mM dithiothreitol.

For test [2], the target named is T2, Dual specificity protein phosphatase 3 (Homo sapiens, UniProt P51452). The experiment in a line: Inhibition of VHR using fluorescein 3,6 diphosphate as substrate measured for 1 hr in presence of 1 mM dithiothreitol.
Target sequence in this assay (P51452 whole entry): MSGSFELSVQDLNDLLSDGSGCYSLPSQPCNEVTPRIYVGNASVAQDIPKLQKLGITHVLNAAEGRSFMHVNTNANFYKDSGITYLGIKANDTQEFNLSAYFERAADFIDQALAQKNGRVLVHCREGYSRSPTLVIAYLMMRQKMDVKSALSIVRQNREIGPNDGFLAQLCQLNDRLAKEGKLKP
For test [3], the target named is T3, M-phase inducer phosphatase 2 (Homo sapiens, UniProt P30305).
T3 sequence (P30305 whole entry): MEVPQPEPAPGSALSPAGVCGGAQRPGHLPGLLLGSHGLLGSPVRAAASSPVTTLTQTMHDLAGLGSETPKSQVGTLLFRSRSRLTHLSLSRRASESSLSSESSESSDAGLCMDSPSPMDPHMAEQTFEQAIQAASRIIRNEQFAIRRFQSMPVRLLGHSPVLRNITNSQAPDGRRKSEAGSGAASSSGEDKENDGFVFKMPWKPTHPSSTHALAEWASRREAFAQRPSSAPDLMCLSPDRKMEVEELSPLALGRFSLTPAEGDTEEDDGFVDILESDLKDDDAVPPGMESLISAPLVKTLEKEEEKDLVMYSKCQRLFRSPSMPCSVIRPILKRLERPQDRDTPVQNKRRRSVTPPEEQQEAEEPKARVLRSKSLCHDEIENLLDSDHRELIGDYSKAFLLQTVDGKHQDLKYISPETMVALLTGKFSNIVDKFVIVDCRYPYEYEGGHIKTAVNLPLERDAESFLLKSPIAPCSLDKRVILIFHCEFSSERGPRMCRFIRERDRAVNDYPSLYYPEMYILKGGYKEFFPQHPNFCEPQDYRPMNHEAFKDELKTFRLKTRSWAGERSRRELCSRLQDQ
Description: Inhibition of MBP-fused recombinant wild type CDC25B3 using fluorescein 3,6 diphosphate as substrate measured for 30 mins in presence of 1 mM dithiothreitol.

Test [4] deals with T4, Tyrosine-protein phosphatase non-receptor type 1 (Homo sapiens, UniProt P18031).
T4 sequence (P18031 whole entry): T1 sequence (whole entry)
The experiment in a line: Inhibition of PTP1B using fluorescein 3,6 diphosphate as substrate measured for 1 hr in presence of 1 mM dithiothreitol.

For test [5], the target named is T2, Dual specificity protein phosphatase 3. Description: Inhibition of VHR using fluorescein 3,6 diphosphate as substrate at 100 uM measured for 1 hr in presence of 1 mM dithiothreitol.
Target sequence in this assay (P51452 whole entry, looked up): as the sequence (P51452 whole entry) above
The target of test [6] is T5, M-phase inducer phosphatase 2 (Homo sapiens) (UniProt P30305).
T5 sequence (whole entry): T3 sequence (P30305 whole entry)
The experiment in a line: Inhibition of MBP-fused recombinant wild type CDC25B3 using fluorescein 3,6 diphosphate as substrate at 100 uM measured for 30 mins in presence of 1 mM dithiothreitol.

Test [7] concerns the target T1, Tyrosine-protein phosphatase non-receptor type 1 (Homo sapiens). Description: Inhibition of PTP1B using fluorescein 3,6 diphosphate as substrate at 50 uM measured for 1 hr in presence of 1 mM dithiothreitol.
Test [8] concerns the target T3, M-phase inducer phosphatase 2. Description: Inhibition of MBP-fused recombinant wild type CDC25B3 using fluorescein 3,6 diphosphate as substrate measured for 30 mins in presence of 20 mM dithiothreitol.
In test [9] the target is T2, Dual specificity protein phosphatase 3. The experiment in a line: Inhibition of VHR using fluorescein 3,6 diphosphate as substrate at 10 uM measured for 1 hr in presence of 1 mM dithiothreitol.
Target sequence in this assay (P51452 whole entry, looked up): as the sequence (P51452 whole entry) above
Test [10] addresses T3, M-phase inducer phosphatase 2. The experiment in a line: Inhibition of MBP-fused recombinant wild type CDC25B3 using fluorescein 3,6 diphosphate as substrate measured for 30 mins in presence of 10 mM dithiothreitol.
In test [11] the target is T1, Tyrosine-protein phosphatase non-receptor type 1 (Homo sapiens). The experiment in a line: Inhibition of PTP1B using fluorescein 3,6 diphosphate as substrate at 10 uM measured for 1 hr in presence of 1 mM dithiothreitol.

A word on the inhibition: it is how much of the control response was suppressed. As usually defined, the IC50 is the concentration at which inhibition is half-maximal.

For the compound `CCCCNC1=NC(=O)/C(=C/c2ccc(O)cc2)S1`, the inhibition in [1] stood at 35%.
For the compound `O=C1N=C(NCCCCCNC2=NC(=O)/C(=C/c3ccc(O)cc3)S2)S/C1=C\c1ccc(O)cc1`, the IC50 was determined as 75.8 µM in test [2], 13.9 µM in test [3] and 20.6 µM in test [4].
`O=C1N=C(NCCCCCCCNC2=NC(=O)/C(=C/c3ccc4c(c3)OCO4)S2)S/C1=C\c1ccc2c(c1)OCO2`: the inhibition in test [5] is 27%; in test [1] it was 30%. For the same compound, in test [3], the IC50 was 13.8 µM.
As for `O=C1N=C(NCc2cccc(CNC3=NC(=O)/C(=C/c4ccc(O)cc4)S3)c2)S/C1=C\c1ccc(O)cc1`, in [4], the IC50 turned out to be 9.1 µM.
With `O=C1N=C(NCc2ccccc2)S/C1=C\c1ccc(O)cc1`, the inhibition in test [6] turned out to be 45%; in test [5], 8%; in test [1] it was 46%.
For `CCCCCNC1=NC(=O)/C(=C/c2ccc(O)cc2)S1`, the inhibition in [1] is 35%.
On to `O=C1N=C(NCCCCCCCCNC2=NC(=O)/C(=C/c3ccc(O)cc3)S2)S/C1=C\c1ccc(O)cc1`, for which the inhibition in test [5] was 29%. For the same compound, the IC50 in test [3] was found to be 3.9 µM; in [4], 11.6 µM.
As for `O=C1N=C(NCCCCCCNC2=NC(=O)/C(=C/c3ccc(O)cc3)S2)S/C1=C\c1ccc(O)cc1`, in test [4], the IC50 was 12.4 µM.
Turning to `O=C1N=C(NCCN2CCN(CCNC3=NC(=O)/C(=C/c4ccc(O)cc4)S3)CC2)S/C1=C\C=C\c1ccccc1`, the inhibition in test [1] worked out at 13%.
For the compound `O=C(O)/C=C/c1ccc(/C=C2\SC(NCCCCCCCNC3=NC(=O)/C(=C/c4ccc(/C=C/C(=O)O)cc4)S3)=NC2=O)cc1`, the IC50 in test [4] was determined as 26.9 µM.
Turning to `O=C1N=C(NCCCCCCCNC2=NC(=O)/C(=C/c3ccc(-c4ccccc4)o3)S2)S/C1=C\c1ccc(-c2ccccc2)o1`, the inhibition in test [1] is 50%.
For the compound `O=C1N=C(NCCCCNC2=NC(=O)/C(=C/c3ccc(O)cc3)S2)S/C1=C\c1ccc(O)cc1`, in test [4], the IC50 was 28.4 µM.
As for `O=C1N=C(NCCN2CCN(CCNC3=NC(=O)/C(=C/c4ccc(O)cc4)S3)CC2)S/C1=C\c1ccc(O)cc1`, the IC50 in test [4] amounted to 46 µM.
In the case of `O=C1N=C(NCCCn2cc(CCNC3=NC(=O)/C(=C/c4ccc(O)cc4)S3)nn2)S/C1=C\c1ccc(O)cc1`, the inhibition in test [5] stood at 55%; in test [7] it was 20%. Further, in test [3], the IC50 was 20.6 µM.
For `CNC1=NC(=O)/C(=C/c2ccc(O)cc2)S1`, the inhibition in test [1] was 32%.
On the same count and under the same terms, for `O=C1N=C(NCCN2CCN(CCNC3=NC(=O)/C(=C/c4ccc5[nH]ncc5c4)S3)CC2)S/C1=C\c1ccc(O)cc1` the value was 18%.
As for `O=C1N=C(NCC2CCCC(CNC3=NC(=O)/C(=C/c4ccc(O)cc4)S3)C2)S/C1=C\c1ccc(O)cc1` (stereo not drawn), the inhibition in [5] amounted to 30%. Further, the IC50 was 6.6 µM in test [3] and 9 µM in [4].
On to `O=C1N=C(NCCCCCCCNC2=NC(=O)/C(=C/C=C/c3ccccc3)S2)S/C1=C\C=C\c1ccccc1`, for which the inhibition in [5] amounted to 34%; in test [1] it was 51%. Besides, the IC50 in [3] came out at 7.7 µM.
On to `O=C1N=C(NCCCCCCCCCNC2=NC(=O)/C(=C/c3ccc(O)cc3)S2)S/C1=C\c1ccc(O)cc1`, for which the IC50 in [4] was 6.2 µM.
On to `O=C1N=C(NCCCCCCCNC2=NC(=O)/C(=C/c3ccc(O)cc3)S2)S/C1=C\c1ccc(O)cc1`, for which, in test [4], the IC50 was 30.6 µM.
With `O=C1N=C(NCCCc2cn(CCCNC3=NC(=O)/C(=C/c4ccc(O)cc4)S3)nn2)S/C1=C\c1ccc(O)cc1`, in test [7], the inhibition stood at 50%.
On to `O=C1N=C(NCCN2CCN(CCNC3=NC(=O)/C(=C/c4ccc5c(c4)OCO5)S3)CC2)S/C1=C\c1ccc(O)cc1`, for which the inhibition was found to be 29% in [5] and 19% in test [1]. For the same compound, the IC50 in test [3] was 4.4 µM.
Regarding `O=C1N=C(NCCCc2cn(CCNC3=NC(=O)/C(=C/c4ccc(O)cc4)S3)nn2)S/C1=C\c1ccc(O)cc1`, the inhibition in [7] was found to be 35%.
For `O=C1N=C(NCCCn2cc(CNC3=NC(=O)/C(=C/c4ccc(O)cc4)S3)nn2)S/C1=C\c1ccc(O)cc1`, the inhibition in test [7] amounted to 25%.
As to `O=C1N=C(NCCCCCCCNC2=NC(=O)/C(=C/c3cc(Br)c(O)c(Br)c3)S2)S/C1=C\c1cc(Br)c(O)c(Br)c1`, the IC50 in test [8] was found to be 3.2 µM; in [3], 1.38 µM; in [4], 24.2 µM; in test [10], 3.1 µM. In addition, the values for the inhibition in [5] and in test [9] were 100% and 31%, respectively.
`O=C1N=C(NCCCCCCCNC2=NC(=O)/C(=C/c3ccccc3)S2)S/C1=C\c1ccccc1`: the IC50 in test [4] was found to be 41.3 µM.
In the case of `CC1=CC(=O)c2ccccc2C1=O` [MENADIONE], the IC50 in [3] amounted to 2.2 µM.
Take `O=C1N=C(NCCCCCCCNC2=NC(=O)/C(=C/c3ccc(O)c(O)c3)S2)S/C1=C\c1ccc(O)c(O)c1`: in test [4], the IC50 amounted to 23.4 µM.
As to `O=C1N=C(NCCN2CCN(CCNC3=NC(=O)/C(=C/c4cc(Br)c(O)c(Br)c4)S3)CC2)S/C1=C\c1ccc(O)cc1`, the inhibition in [11] stood at 33%; in test [1], 100%.
Consider `O=C1N=C(NCCN2CCN(CCNC3=NC(=O)/C(=C/c4ccc(O)cc4)S3)CC2)S/C1=C\C=C\c1ccco1`, for which the inhibition in [1] stood at 39%.
Still for that read-out and setting: in the case of `COc1cc(/C=C2\SC(NCCCCCCCNC3=NC(=O)/C(=C/c4cc(OC)c(O)c(OC)c4)S3)=NC2=O)cc(OC)c1O` it was 2%.
